Values of other authors as cited in patent publication US20040082013A1, “Methods for screening for substances which inhibit fp prostanoid receptor interaction with a compound having pgf2alpha activity and methods of treating cancer” (priority 2003, published 2004).

Columns and labels:
[1] = test system: eyelashes and adjacent hair; settings: some patients receiving latanoprost for glaucoma; treated eye, not untreated eye
skin carcinogenesis = settings: animal models of skin carcinogenesis

Compound | hair growth side effect [1] | effect on anti-tumor promoting activity of indomethacin (skin carcinogenesis) | effect on tumor promoting activity of phorbol esters (skin carcinogenesis)
CC(C)OC(=O)CCC/C=C\C[C@@H]1[C@@H](CC[C@@H](O)CCc2ccccc2)[C@H](O)C[C@@H]1O [latanoprost] | hypertrichosis of the eyelashes and adjacent hair in the treated eye |  | 
prostaglandin F2α [PGF2α] |  | reversed the anti-tumor promoting activity of indomethacin | increased the tumor promoting activity of phorbol esters
